Source: US20020103228A1, “Composition and method for use of pyridinium derivatives in cosmetic and therapeutic applications” (TORRENT PHARMACEUTICALS LTD., priority 1999, published 2002)
Values joined by “and” are separate entries in the source; they are usually repeats but may differ in a detail not shown here. Equal entries are not always repeated.

Assays:
AGE-BSA = biological target: T1, AGE-BSA (Bos taurus, UniProt P02769); assay: In-vitro AGE breaking activity by ELISA; type: biochemical, Bovine; conditions: 37° C., 24 hours
T1 construct: Bovine serum albumin (fraction V) (BSA); from tissue; host or cells: bovine serum (fraction V); glycated in house with 1.6 M glucose at 37 °C for 16 weeks
T1 sequence (P02769 25-607): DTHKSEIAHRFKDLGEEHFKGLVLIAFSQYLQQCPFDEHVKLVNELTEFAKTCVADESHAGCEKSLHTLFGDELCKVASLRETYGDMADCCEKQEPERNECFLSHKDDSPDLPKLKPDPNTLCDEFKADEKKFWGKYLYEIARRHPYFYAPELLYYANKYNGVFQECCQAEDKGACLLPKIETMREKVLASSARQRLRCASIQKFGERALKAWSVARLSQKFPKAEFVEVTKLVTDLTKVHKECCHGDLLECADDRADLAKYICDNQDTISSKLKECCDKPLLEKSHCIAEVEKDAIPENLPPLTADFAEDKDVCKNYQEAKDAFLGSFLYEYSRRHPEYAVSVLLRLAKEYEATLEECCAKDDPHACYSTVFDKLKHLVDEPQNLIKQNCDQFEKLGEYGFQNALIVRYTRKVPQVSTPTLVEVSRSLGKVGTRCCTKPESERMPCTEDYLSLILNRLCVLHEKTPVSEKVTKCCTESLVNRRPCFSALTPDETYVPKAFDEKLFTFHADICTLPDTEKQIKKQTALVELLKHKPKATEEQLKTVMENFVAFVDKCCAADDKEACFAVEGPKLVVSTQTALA
Description: AGE breaking activity has been confirmed by the screening procedure as mentioned below:
Methods of experiment: Elisa (Enzyme Linked Immunosorbent Assay)
160 mg/ml of protein, bovine serum albumin, BSA and 1.6M glucose sugar were dissolved in phosphate buffered saline, PBS. Sodium azide was added at 0.02% concentration as a preservative. The solution was filtered asceptically through a […] filter and kept for aging at 37° C. for 16 weeks. After 16 weeks the solution was dialyzed against PBS, aliquoted and stored at −20° C.
To determine the AGE breaking activity, 10 μg/ml of the 16 weeks AGE-BSA was incubated with different concentrations of the test compounds at 37° C. for 24 hours and AGE breaking activity of the test compounds by ELISA was determined.
ELISA was performed as follows
1. Different concentrations of 16 weeks AGE-BSA were coated on a microtiter plate as standard. Each concentration is coated in triplicates.
2. The test samples were coated on microtiter plate at a concentration of 5 ng to 20 ng per well in triplicates
3. The plate was incubated at 37° C. for one hour.
4. After incubation the plate was washed with PBST (PBS with 0.05% Tween 20).
5. Blocking with 5% skimmed milk in PBS at 37° C. for one hour was done.
6. The plate was washed with PBST.
7. Primary antibody against AGE-BSA was added and the plate is incubated at 37° C. for one hour.
8. The plate was washed with PBST
9. Secondary antibody anti rabbit HRPO (Horse-Radish Per Oxidase) conjugate was added and the plate is incubated at 37° C. for one hour.
10. The plate was washed with PBST.
11. Colour development with OPD (orthophenylenediamine dihydrochloride) and hydrogen peroxide was done.
12. OD (optical density) at (450 nm reading-620 nm reading) was measured after incubation at 37° C. for 15 minutes with Microplate ELISA Reader
The breaker activity of the compounds were determined by the following formula: [formula]
OD450-620Control=Absorbance of 20 ng AGE-BSA after incubation at 37° C. for 24 hours without test compound
OD450-620Test=Absorbance of 20 ng AGE-BSA after incubation at 37° C. for 24 hours with required concentration of test compound
Using specific examples, the % AGE breaking activity was calculated and recorded in Table 2.

[1] = Free radical scavenging activity on ABTS radical cation; type: biochemical
Description: This method measures the relative ability of free radical scavenging substances to scavenge the ABTS^.+ i.e. 2,2-Azino-bis-(3-ethyl benzo thiazoline-6-sulfonate) radical cation as compared to a standard amount of standard or free radical scavengers antioxidants. Incubation of ABTS with Peroxidase (metmyoglobin) and hydrogen peroxide results in the production of radical cation ABTS^.+. This species is blue-green in colour and can be detected at 730 nm. Antioxidants or free radical scavengers in the added sample that causes suppression of the color to a degree that is proportional to their concentration.
Preparation of Buffer Solutions
A. Phosphate Citrate Buffer (pH 5.0). 48.5 ml of 0.1M citric acid with sufficient 0.2M disodium hydrogen phosphate to produce 100 ml.
B. Phosphate Buffer Saline (PBS): Dissolve 40.0 g of NaCl, 1.0 g of KCl, 1.0 g of KH2PO4 and 3.05 g of Na2HPO4 in 1 liter milli-Q water. Dilute 200 ml of above solution to 1 liter with milli-Q water (pH 7.4-7.6).
C. 3 μM stock solution of Peroxidase was prepared in phosphate buffer saline pH 7.4(PBS).
D. 1.08 mM stock solution of Hydrogen peroxide was prepared in phosphate buffer saline pH 7.4 (PBS).
Preparation of ABTS Stock Solution
1 tablet (10 mg) was dissolved in phosphate citrate buffer (pH 5.0).
Preparation of ABTS Working Solution
5.0 ml of ABTS stock solution was diluted with PBS to 20 ml.
Preparation of Horse Radish Peroxidase Stock Solution
320 μg of the enzyme was dissolved in 2.5 ml of PBS.
Preparation of Hydrogen Peroxide (1.08 mM) Solution
12 μl of Hydrogen Peroxide (30% w/v) was diluted to 100 ml with PBS. […]
Preparation of ABTS Radical Stock Solution
To 18 ml of ABTS stock solution, 100 μl of Horseradish Peroxidase stock solution was added.
As soon as 1.5 ml of hydrogen peroxide solution was added to the above solution, blue-green colour of the ABTS radicals appeared. This solution was incubated at 30° C. for 30 min.
Preparation of Control Solution
980 μl of ABTS radical stock solution was added to an eppendorf tube. To it was added 100 μl of various PBS solution.
Preparation of test Solution
980 μl of ABTS radical stock solutions were added to different eppendorf tubes. To it were added 100 μl of various concentrations of drug solution.
Measurement of Absorbance (O.D)
The absorbance of control and test samples was recorded immediately at 730 nm taking PBS as blank.
Calculation: The percent antioxidant activity was calculated according to the formula. % Antioxidant activity=[O.D of test sample/O.D of control*100]−100.

Compound	% Breakage (AGE-BSA; 10 mM test compound)	Relative Free Radical Scavenging Activity (%) on ABTS ([1]; 11.5 μM)	Relative Free Radical Scavenging Activity (%) on ABTS ([1]; 23.0 μM)	Relative Free Radical Scavenging Activity (%) on ABTS ([1]; 46.0 μM)	Relative Free Radical Scavenging Activity (%) on ABTS ([1]; 92.5 μM)	further results
CC(C)S(=O)(=O)NNC(=O)c1ccc[n+](CC(=O)c2cccs2)c1.[Br-] [Compound 50, 1-(2-thien-2′-yl-2-oxoethyl)-3-(isopropylsulfonyl hydrazinocarbonyl)pyridinium bromide]	31.45%	3.30%	23.06%	54.95%	89.31%	–
CS(=O)(=O)NNC(=O)c1ccc[n+](CC(=O)c2cc([N+](=O)[O-])cs2)c1.[Br-] [Compound 64, 1-(2-(4-nitrothien-2-yl)-2-oxoethyl)-3-(methanesulfonyl hydrazinocarbonyl)pyridinium bromide]	60.94%	–	–	–	–	Relative Free Radical Scavenging Activity (%) on ABTS ([1]; 11.5 μM, listed as Compound No. 64, 11.5 µM): 41.8% and 26.01%; Relative Free Radical Scavenging Activity (%) on ABTS ([1]; 23.0 μM, listed as Compound No. 64, 23 µM): 55.7% and 57.39%; Relative Free Radical Scavenging Activity (%) on ABTS ([1]; 46.0 μM, listed as Compound No. 64, 46 µM): 72.2% and 99.30%; Relative Free Radical Scavenging Activity (%) on ABTS ([1]; 92.5 μM, listed as Compound No. 64, 92.5 µM): 99.0% and 99.62%; Relative Free Radical Scavenging Activity (%) on ABTS ([1]; 925 μM): 100%
CS(=O)(=O)NNC(=O)c1ccc[n+](CC(=O)c2ccc(Cl)s2)c1.[Br-] [Compound 55, 1-(2-(5-chlorothien-2-yl)-2-oxoethyl)-3-(methanesulfonyl hydrazinocarbonyl)pyridinium bromide]	40.85%	46.47%	84.97%	99.50%	99.93%	–
COCCOC(=O)c1ccc[n+](CC(=O)c2ccc(Cl)cc2Cl)c1.[Br-] [Compound 22, 1-(2-(2′,4′-dichlorophenyl)-2-oxoethyl)-3-(2(methoxy)ethyloxycarbonyl)pyridinium bromide]	13%	27.9%	50.9%	69.3%	79.7%	% Breakage (AGE-BSA; 25 mM test compound): 41%; Relative Free Radical Scavenging Activity (%) on ABTS ([1]; 925 μM): 100%
Cc1ccc(C(=O)C[n+]2cccc(C(=O)NNS(C)(=O)=O)c2)s1.[Cl-] [Compound 63, 1-(2-(5-methylthien-2-yl)-2-oxoethyl)-3-(methanesulfonyl hydrazinocarbonyl)pyridinium chloride]	25.17%	10.75%	47.20%	88.64%	99.18%	–
CCOC(=O)C[n+]1cccc(C(=O)NNc2ccccn2)c1.[Br-] [Compound 4, 1-(2-ethoxy-2-oxoethyl)-3-(2-(2-pyridyl)hydrazinocarbonyl)pyridinium bromide]	30%	58.2%	64.3%	69.3%	98.6%	Relative Free Radical Scavenging Activity (%) on ABTS ([1]; 925 μM): 100%
COCCNC(=O)c1ccc[n+](CC(=O)NC2CC2)c1.[Cl-] [Compound 40, 1-(2-cyclopropylamino-2-oxoethyl)-3-(2-methoxyethylaminocarbonyl)-pyridinium chloride]	12.38%	–	–	–	–	–
O=C(NNC(=O)c1ccc[n+](CC(=O)c2ccc(Cl)s2)c1)c1ccc[n+](CC(=O)c2ccc(Cl)s2)c1.[Cl-].[Cl-] [Compound 62, N,N′-bis[3-carbonyl-1-(2-(5-chlorothien-2-yl)-2-oxoethyl)pyridinium]hydrazine dichloride]	78.41%	–	–	–	–	–
NC(=O)c1ccc[n+](CC(=O)c2cccs2)c1.[Br-] [Compound 85, 3-Carbonylamino-1-(2-thien-2′-yl-2-oxoethyl)-pyridinium bromide]	3%	–	–	–	–	–
CCOC(=O)C[n+]1cccc(C(=O)OCCOC(=O)c2ccccc2)c1.[Br-] [Compound 17, 1-(2-ethoxy-2-oxoethyl)-3-(2-(benzoyloxy)ethyloxycarbonyl)pyridinium bromide]	19%	–	–	–	–	–
O=C(C[n+]1ccsc1)c1ccccc1.[Br-] [PTB, reference compound]	27%	–	–	–	–	% Breakage (AGE-BSA; 20 mM test compound): 47%
Cc1ccc(C(=O)NNS(C)(=O)=O)c[n+]1CC(=O)c1cccs1.[Br-] [Compound 57, 1-(2-thien-2′-yl-2-oxoethyl)-3-(methanesulfonyl hydrazinocarbonyl)-6-methyl pyridinium bromide]	–	–	–	–	–	% Breakage (AGE-BSA; 1 mM test compound): 77.69%
Cc1ccc(C(=O)C[n+]2cccc(C(=O)NNC(=O)c3ccc[n+](CC(=O)c4ccc(C)s4)c3)c2)s1.[Cl-].[Cl-] [Compound 58, N,N′-bis[3-carbonyl-1-(2-(5-methylthien-2-yl)-2-oxoethyl)pyridinium]hydrazine dichloride]	81.95%	–	–	–	–	–
CC(C)NC(=O)C[n+]1cccc(C(=O)NNS(C)(=O)=O)c1.[Cl-] [Compound 43, 1-(2-isopropylamino-2-oxoethyl)-3-(2-methylsulfonylhydrazinocarbonyl)-pyridinium chloride]	10.85%	–	–	–	–	–
CCOC(=O)C1CCCN1C(=O)C[n+]1cccc(C(=O)NNC(=O)c2ccc[n+](CC(=O)N3CCCC3C(=O)OCC)c2)c1.[Cl-].[Cl-] (centres unmarked) [Compound 59, N,N′-bis[3-carbonyl-1-(2-(2-ethoxycarbonylpyrrolidin-1-yl)-2-oxoethyl)pyridinium]hydrazine dichloride]	20.31%	–	–	–	–	–
